Results: patent US20240043404A1 (AbbVie Inc., priority 2009, published 2024)

Tested on: RS4;11 cells
Assay: RS4;11 cell viability assay (CellTiter Glo);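 also: acute lymphoblastic leukemia line RS4,11, EC50 derived from percentage of viable cells after treatment relative to untreated controls, cell killing taken as a measure of Bcl-2 inhibition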
Assay type: cell-based, human
Conditions: Homo sapiens, RS4-11, 48 h, 50,000 cells per well, 10% human serum, 48 hours; read-out: RS4; 11 EC50 Values
Description: The acute lymphoblastic leukemia (ALL) cell line RS4;11 was used as the primary human cell line to assess the cellular activity of Bcl-2 selective agents in vitro and their efficacy in vivo.
Cell cytotoxicity EC50 values were assessed using CellTiter Glo (Promega) according to the manufacturer's recommendations. The EC50 values were determined as a percentage of viable cells following treatment compared to the untreated control cells.

SMILES | EC50 [nM]
CC1(C)CCC(CN2CCN(c3ccc(C(=O)NS(=O)(=O)c4ccc(N[C@H]5CC[C@H](NC6CCOCC6)CC5)c([N+](=O)[O-])c4)c(Oc4cnc5[nH]ccc5c4)c3)CC2)=C(c2ccc(Cl)cc2)C1 [Example 123, Trans-4-(4-{[2-(4-chlorophenyl)-4,4-dimethylcyclohex-1-en-1-yl]methyl}piperazin-1-yl)-N-[(3-nitro-4-{[4-(tetrahydro-2H-pyran-4-ylamino)cyclohexyl]amino}phenyl)sulfonyl]-2-(1H-pyrrolo[2,3-b]pyridin-5-yloxy)benzamide] | 3.33
CC1(C)CCC(CC2CCN(c3ccc(C(=O)NS(=O)(=O)c4ccc(OCC5CCOCC5)c(Cl)c4)c(Oc4cnc5[nH]ccc5c4)c3)CC2)=C(c2ccc(Cl)cc2)C1 [Example 316, 4-(4-{[2-(4-chlorophenyl)-4,4-dimethylcyclohex-1-en-1-yl]methyl}piperidin-1-yl)-N-{[3-chloro-4-(tetrahydro-2H-pyran-4-ylmethoxy)phenyl]sulfonyl}-2-(1H-pyrrolo[2,3-b]pyridin-5-yloxy)benzamide] | > 1000
CC1(C)CCC(CN2CCN(c3ccc(C(=O)NS(=O)(=O)c4ccc(NCc5cccc(OC(F)(F)F)c5)c([N+](=O)[O-])c4)c(Oc4cnc5[nH]ccc5c4)c3)CC2)=C(c2ccc(Cl)cc2)C1 [Example 175, 4-(4-{[2-(4-chlorophenyl)-4,4-dimethylcyclohex-1-en-1-yl]methyl}piperazin-1-yl)-N-[(3-nitro-4-{[3-(trifluoromethoxy)benzyl]amino}phenyl)sulfonyl]-2-(1H-pyrrolo[2,3-b]pyridin-5-yloxy)benzamide] | > 1000
CC1(C)CCC(CN2CCN(c3ccc(C(=O)NS(=O)(=O)c4ccc(OCC5CCOCC5)c([N+](=O)[O-])c4)c(Oc4cnc5[nH]ccc5c4)c3)CC2)=C(c2ccc(Cl)cc2)C1 [Example 24, 4-(4-{[2-(4-chlorophenyl)-4,4-dimethylcyclohex-1-en-1-yl]methyl}piperazin-1-yl)-N-{[3-nitro-4-(tetrahydro-2H-pyran-4-ylmethoxy)phenyl]sulfonyl}-2-(1H-pyrrolo[2,3-b]pyridin-5-yloxy)benzamide] | 9.83
COCC1CCC(CNc2ccc(S(=O)(=O)NC(=O)c3ccc(N4CCN(CC5=C(c6ccc(Cl)cc6)CC(C)(C)CC5)CC4)cc3Oc3cnc4[nH]ccc4c3)cc2[N+](=O)[O-])CC1 (stereo not shown) [Example 374, 4-(4-{[2-(4-chlorophenyl)-4,4-dimethylcyclohex-1-en-1-yl]methyl}piperazin-1-yl)-N-{[4-({[4-(methoxymethyl)cyclohexyl]methyl}amino)-3-nitrophenyl]sulfonyl}-2-(1H-pyrrolo[2,3-b]pyridin-5-yloxy)benzamide] | 15.5
CC1(C)CCC(CN2CCN(c3ccc(C(=O)NS(=O)(=O)c4ccc(NCc5cccc(O)c5)c([N+](=O)[O-])c4)c(Oc4cnc5[nH]ccc5c4)c3)CC2)=C(c2ccc(Cl)cc2)C1 [Example 186, 4-(4-{[2-(4-chlorophenyl)-4,4-dimethylcyclohex-1-en-1-yl]methyl}piperazin-1-yl)-N-({4-[(3-hydroxybenzyl)amino]-3-nitrophenyl}sulfonyl)-2-(1H-pyrrolo[2,3-b]pyridin-5-yloxy)benzamide] | 64.4
CC1(C)CCC(CN2CCN(c3ccc(C(=O)NS(=O)(=O)c4ccc(N[C@H]5CCN(CCF)C5)c([N+](=O)[O-])c4)c(Oc4cnc5[nH]ccc5c4)c3)CC2)=C(c2ccc(Cl)cc2)C1 [Example 181, 4-(4-{[2-(4-chlorophenyl)-4,4-dimethylcyclohex-1-en-1-yl]methyl}piperazin-1-yl)-N-[(4-{[(3S)-1-(2-fluoroethyl)pyrrolidin-3-yl]amino}-3-nitrophenyl)sulfonyl]-2-(1H-pyrrolo[2,3-b]pyridin-5-yloxy)benzamide] | 106
CC1(C)CCC(CN2CCN(c3ccc(C(=O)NS(=O)(=O)c4ccc(NC[C@H]5CN(C6CC6)CCO5)c([N+](=O)[O-])c4)c(Oc4cnc5[nH]ccc5c4)c3)CC2)=C(c2ccc(Cl)cc2)C1 [Example 327, 4-(4-{[2-(4-chlorophenyl)-4,4-dimethylcyclohex-1-en-1-yl]methyl}piperazin-1-yl)-N-{[4-({[(2S)-4-cyclopropylmorpholin-2-yl]methyl}amino)-3-nitrophenyl]sulfonyl}-2-(1H-pyrrolo[2,3-b]pyridin-5-yloxy)benzamide] | 2.72
CC1(C)CCC(CN2CCN(c3ccc(C(=O)NS(=O)(=O)c4ccc(N[C@@H]5CCN(CC#N)C5)c([N+](=O)[O-])c4)c(Oc4cnc5[nH]ccc5c4)c3)CC2)=C(c2ccc(Cl)cc2)C1 [Example 262, 4-(4-{[2-(4-chlorophenyl)-4,4-dimethylcyclohex-1-en-1-yl]methyl}piperazin-1-yl)-N-[(4-{[(3R)-1-(cyanomethyl)pyrrolidin-3-yl]amino}-3-nitrophenyl)sulfonyl]-2-(1H-pyrrolo[2,3-b]pyridin-5-yloxy)benzamide] | 16.3
CN(C)CC(=O)N1CCC(F)(COc2ncc(S(=O)(=O)NC(=O)c3ccc(N4CCN(CC5=C(c6ccc(Cl)cc6)CC(C)(C)CC5)CC4)cc3Oc3cnc4[nH]ccc4c3)cc2Cl)CC1 [Example 270, N-[(5-chloro-6-{[1-(N,N-dimethylglycyl)-4-fluoropiperidin-4-yl]methoxy}pyridin-3-yl)sulfonyl]-4-(4-{[2-(4-chlorophenyl)-4,4-dimethylcyclohex-1-en-1-yl]methyl}piperazin-1-yl)-2-(1H-pyrrolo[2,3-b]pyridin-5-yloxy)benzamide] | 2.52
CN(C)CC(=O)N1CCC(COc2ccc(S(=O)(=O)NC(=O)c3ccc(N4CCN(CC5=C(c6ccc(Cl)cc6)CC(C)(C)CC5)CC4)cc3Oc3cnc4[nH]ccc4c3)cc2Cl)CC1 [Example 295, N-[(3-chloro-4-{[1-(N,N-dimethylglycyl)piperidin-4-yl]methoxy}phenyl)sulfonyl]-4-(4-{[2-(4-chlorophenyl)-4,4-dimethylcyclohex-1-en-1-yl]methyl}piperazin-1-yl)-2-(1H-pyrrolo[2,3-b]pyridin-5-yloxy)benzamide] | 14.8
CC1(C)CCC(CN2CCN(c3ccc(C(=O)NS(=O)(=O)c4cnc(OCC5(F)CCN(CC#N)CC5)c(Cl)c4)c(Oc4cnc5[nH]ccc5c4)c3)CC2)=C(c2ccc(Cl)cc2)C1 [Example 257, N-[(5-chloro-6-{[1-(cyanomethyl)-4-fluoropiperidin-4-yl]methoxy}pyridin-3-yl)sulfonyl]-4-(4-{[2-(4-chlorophenyl)-4,4-dimethylcyclohex-1-en-1-yl]methyl}piperazin-1-yl)-2-(1H-pyrrolo[2,3-b]pyridin-5-yloxy)benzamide] | 26
CC1(C)CCC(CN2CCN(c3ccc(C(=O)NS(=O)(=O)c4ccc(OCC5(F)CCN(C6COC6)CC5)c(Cl)c4)c(Oc4cnc5[nH]ccc5c4)c3)CC2)=C(c2ccc(Cl)cc2)C1 [Example 322, N-[(3-chloro-4-{[4-fluoro-1-(oxetan-3-yl)piperidin-4-yl]methoxy}phenyl)sulfonyl]-4-(4-{[2-(4-chlorophenyl)-4,4-dimethylcyclohex-1-en-1-yl]methyl}piperazin-1-yl)-2-(1H-pyrrolo[2,3-b]pyridin-5-yloxy)benzamide] | 12.4
